System: DMS-114 complex spheroids with HUVEC/MSC, growth % test/control
Test: Anticancer human tumor DMS-114 cell line growth inhibition [AhR];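 also: spheroids exposed to agents for 7 days before readout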;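 as to viability, T/C: 100% = DMSO vehicle control wells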
Conditions: for IC50: curve of first compound; for viability, T/C: stronger effect = lower value
In short: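 Agents were dosed in half-log steps down from roughly clinical Cmax, or from 10 microM where Cmax was unknown, alone and with AhR antagonists. Read-out: percent test/control growth of tumor spheroids containing HUVEC and MSC stromal cells.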

[1] = second compound 0.1 µM, first compound 0.0316 µM
[2] = second compound 0.1 µM, first compound 0.1 µM
[3] = second compound 0.1 µM, first compound 0.316 µM
[4] = second compound 0.1 µM, first compound 1 µM
[5] = second compound 0.1 µM, first compound 3.16 µM
[6] = second compound 0.1 µM, first compound 10 µM
[7] = second compound 0.316 µM, first compound 0.0316 µM
[8] = second compound 0.316 µM, first compound 0.1 µM
[9] = second compound 0.316 µM, first compound 0.316 µM
[10] = second compound 0.316 µM, first compound 1 µM
[11] = second compound 0.316 µM, first compound 3.16 µM
[12] = second compound 0.316 µM, first compound 10 µM
[13] = second compound 1 µM, first compound 0.0316 µM
[14] = second compound 1 µM, first compound 0.1 µM
[15] = second compound 1 µM, first compound 0.316 µM
[16] = second compound 1 µM, first compound 1 µM
[17] = second compound 1 µM, first compound 3.16 µM
[18] = second compound 1 µM, first compound 10 µM
[19] = second compound 3.16 µM, first compound 0.0316 µM
[20] = second compound 3.16 µM, first compound 0.1 µM
[21] = second compound 3.16 µM, first compound 0.316 µM
[22] = second compound 3.16 µM, first compound 1 µM
[23] = second compound 3.16 µM, first compound 3.16 µM
[24] = second compound 3.16 µM, first compound 10 µM
[25] = second compound 10 µM, first compound 0.0316 µM
[26] = second compound 10 µM, first compound 0.1 µM
[27] = second compound 10 µM, first compound 0.316 µM
[28] = second compound 10 µM, first compound 1 µM
[29] = second compound 10 µM, first compound 3.16 µM
[30] = second compound 10 µM, first compound 10 µM
[31] = second compound 0.1 µM, first compound 0.00316 µM
[32] = second compound 0.1 µM, first compound 0.01 µM
[33] = second compound 0.316 µM, first compound 0.00316 µM
[34] = second compound 0.316 µM, first compound 0.01 µM
[35] = second compound 1 µM, first compound 0.00316 µM
[36] = second compound 1 µM, first compound 0.01 µM
[37] = second compound 3.16 µM, first compound 0.00316 µM
[38] = second compound 3.16 µM, first compound 0.01 µM
[39] = second compound 10 µM, first compound 0.00316 µM
[40] = second compound 10 µM, first compound 0.01 µM

Compound | IC50 (second compound 0.1 µM) | IC50 (second compound 0.316 µM) | IC50 (second compound 1 µM) | IC50 (second compound 3.16 µM) | IC50 (second compound 10 µM) | viability, T/C [1] | viability, T/C [2] | viability, T/C [3] | viability, T/C [4] | viability, T/C [7] | viability, T/C [8] | viability, T/C [9] | viability, T/C [10] | viability, T/C [13] | viability, T/C [14] | viability, T/C [15] | viability, T/C [19] | viability, T/C [20] | viability, T/C [25] | viability, T/C [26] | further results
CC(C)c1c(-c2ccccc2)nc2c(C#N)c[nH]n2c1=O + CC(CO)NC(=O)c1cc(-c2ccc(Cl)cc2)nn(-c2cnn(C)c2)c1=O | > 10000 nM | > 10000 nM | > 10000 nM | > 10000 nM | > 10000 nM | 93.8% | 95.8% | 93.8% | 95.7% | 96.8% | 98.5% | 101% | 98.9% | 93.7% | 100% | 89.6% | 103% | 96.6% | 103% | 105% | viability, T/C [5]: 113%; viability, T/C [6]: 108%; viability, T/C [11]: 110%; viability, T/C [12]: 113%; viability, T/C [16]: 97.7%; viability, T/C [17]: 97.3%; viability, T/C [18]: 103%; viability, T/C [21]: 95.1%; viability, T/C [22]: 94.6%; viability, T/C [23]: 92.3%; viability, T/C [24]: 105%; viability, T/C [27]: 96.1%; viability, T/C [28]: 104%; viability, T/C [29]: 99.5%; viability, T/C [30]: 113%
COc1ccc([C@@H](O)c2cc(-c3ncnc4cc(N5CCOCC5)ccc34)c(F)cc2Cl)nn1 + CC(CO)NC(=O)c1cc(-c2ccc(Cl)cc2)nn(-c2cnn(C)c2)c1=O | > 10000 nM | > 10000 nM | > 10000 nM | > 10000 nM | > 10000 nM | 98.8% | 100% | 100% | 105% | 98.5% | 96.2% | 90.4% | 94.9% | 92% | 95.5% | 96.7% | 108% | 99.8% | 104% | 97.5% | viability, T/C [5]: 108%; viability, T/C [6]: 61%; viability, T/C [11]: 101%; viability, T/C [12]: 63.3%; viability, T/C [16]: 107%; viability, T/C [17]: 98.3%; viability, T/C [18]: 63.8%; viability, T/C [21]: 91.9%; viability, T/C [22]: 103%; viability, T/C [23]: 104%; viability, T/C [24]: 64.2%; viability, T/C [27]: 95.1%; viability, T/C [28]: 87.5%; viability, T/C [29]: 81.2%; viability, T/C [30]: 55.2%
CC[C@@]1(O)C(=O)OCc2c1cc1n(c2=O)Cc2cc3c(CN(C)C)c(O)ccc3nc2-1 + Cc1ccccc1N=Nc1ccc(NC(=O)c2ccnn2C)c(C)c1 | 61.1 nM | 65.1 nM | 71.2 nM | 74.1 nM | 61.2 nM | 66.2% | 38% | – | – | 61.7% | 43% | – | – | 65% | 43.7% | – | 68.5% | 43.5% | 58% | 44.1% | viability, T/C (second compound 0.1 µM, first compound 0.000316 µM): 99.3%; viability, T/C (second compound 0.1 µM, first compound 0.001 µM): 102%; viability, T/C [31]: 97.8%; viability, T/C [32]: 88.6%; viability, T/C (second compound 0.316 µM, first compound 0.000316 µM): 95%; viability, T/C (second compound 0.316 µM, first compound 0.001 µM): 106%; viability, T/C [33]: 100%; viability, T/C [34]: 102%; viability, T/C (second compound 1 µM, first compound 0.000316 µM): 99.2%; viability, T/C (second compound 1 µM, first compound 0.001 µM): 92.3%; viability, T/C [35]: 99.6%; viability, T/C [36]: 94%; viability, T/C (second compound 3.16 µM, first compound 0.000316 µM): 89.2%; viability, T/C (second compound 3.16 µM, first compound 0.001 µM): 92.1%; viability, T/C [37]: 93.2%; viability, T/C [38]: 83.4%; viability, T/C (second compound 10 µM, first compound 0.000316 µM): 91.8%; viability, T/C (second compound 10 µM, first compound 0.001 µM): 92.2%; viability, T/C [39]: 92.1%; viability, T/C [40]: 87.6%
COc1cc(C2c3cc4c(cc3C(OC3OC5COC(C)OC5C(O)C3O)C3COC(=O)C23)OCO4)cc(OC)c1O (stereo not given) + Cc1ccccc1N=Nc1ccc(NC(=O)c2ccnn2C)c(C)c1 | 1740 nM | 1760 nM | 1470 nM | 1650 nM | 1750 nM | 99.4% | 99.1% | 93.4% | 59.7% | 105% | 100% | 84.4% | 56.9% | 97.7% | 92.4% | 84.4% | 100% | 96.4% | 90.7% | 92.5% | viability, T/C [5]: 40.4%; viability, T/C [6]: 26.5%; viability, T/C [11]: 43%; viability, T/C [12]: 25.5%; viability, T/C [16]: 52.2%; viability, T/C [17]: 43.6%; viability, T/C [18]: 29.6%; viability, T/C [21]: 81.7%; viability, T/C [22]: 59.4%; viability, T/C [23]: 37.9%; viability, T/C [24]: 26.4%; viability, T/C [27]: 82.7%; viability, T/C [28]: 57.6%; viability, T/C [29]: 42.2%; viability, T/C [30]: 27.7%
COc1cccc2c1C(=O)c1c(O)c3c(c(O)c1C2=O)CC(O)(C(=O)CO)CC3OC1CC(N)C(O)C(C)O1 (stereo not given) + Cc1ccccc1N=Nc1ccc(NC(=O)c2ccnn2C)c(C)c1 | 81.6 nM | 110 nM | 107 nM | 104 nM | 98.4 nM | 71.6% | 44.9% | 17.1% | 1.65% | 75.5% | 52.5% | 19.4% | 1.84% | 71.4% | 51.8% | 18.3% | 71% | 50.7% | 68.7% | 48.8% | viability, T/C [5]: 0.32%; viability, T/C [6]: 0.78%; viability, T/C [11]: 0.33%; viability, T/C [12]: 1.22%; viability, T/C [16]: 2.28%; viability, T/C [17]: 0.52%; viability, T/C [18]: 0.56%; viability, T/C [21]: 19.3%; viability, T/C [22]: 1.97%; viability, T/C [23]: 0.59%; viability, T/C [24]: 0.61%; viability, T/C [27]: 21.6%; viability, T/C [28]: 1.61%; viability, T/C [29]: 0.52%; viability, T/C [30]: 0.7%
Nc1ncn(C2CC(O)C(CO)O2)c(=O)n1 (stereo not given) + Cc1ccccc1N=Nc1ccc(NC(=O)c2ccnn2C)c(C)c1 | > 1000 nM | > 1000 nM | > 1000 nM | > 1000 nM | > 1000 nM | 103% | 117% | 104% | 105% | 104% | 113% | 96.3% | 104% | 108% | 101% | 95.4% | 95.7% | 99.8% | 92.1% | 91% | viability, T/C [31]: 111%; viability, T/C [32]: 105%; viability, T/C [33]: 103%; viability, T/C [34]: 95.4%; viability, T/C [35]: 109%; viability, T/C [36]: 104%; viability, T/C [16]: 106%; viability, T/C [37]: 115%; viability, T/C [38]: 96.2%; viability, T/C [21]: 99.7%; viability, T/C [22]: 97.7%; viability, T/C [39]: 98.8%; viability, T/C [40]: 98.1%; viability, T/C [27]: 105%; viability, T/C [28]: 87.6%

Reference: PubChem BioAssay AID1919008 (Molecular Pharmacology Branch, DTP, NCI, 2023)
